How the values were obtained:
[1] = target: Casein kinase II subunit alpha' (Homo sapiens) (UniProt P19784); experiment: Residual activity of CK2alpha2 at 1 uM by microplate scintillation counting
[2] = target: Tyrosine-protein kinase JAK2 (Homo sapiens) (UniProt O60674); experiment: Residual activity of JAK2 at 1 uM by microplate scintillation counting
[3] = target: Calcium/calmodulin-dependent protein kinase type II subunit alpha (Homo sapiens) (UniProt Q9UQM7); experiment: Residual activity of CAMK2A at 0.1 uM by microplate scintillation counting
[4] = target: Calcium/calmodulin-dependent protein kinase type II subunit beta (Homo sapiens) (UniProt Q13554); experiment: Residual activity of CAMK2B at 0.1 uM by microplate scintillation counting
[5] = target: T1, Serine/threonine-protein kinase Chk1 (Homo sapiens) (UniProt O14757); experiment: Residual activity of CHK1 at 0.1 uM by microplate scintillation counting
T1 sequence (whole entry): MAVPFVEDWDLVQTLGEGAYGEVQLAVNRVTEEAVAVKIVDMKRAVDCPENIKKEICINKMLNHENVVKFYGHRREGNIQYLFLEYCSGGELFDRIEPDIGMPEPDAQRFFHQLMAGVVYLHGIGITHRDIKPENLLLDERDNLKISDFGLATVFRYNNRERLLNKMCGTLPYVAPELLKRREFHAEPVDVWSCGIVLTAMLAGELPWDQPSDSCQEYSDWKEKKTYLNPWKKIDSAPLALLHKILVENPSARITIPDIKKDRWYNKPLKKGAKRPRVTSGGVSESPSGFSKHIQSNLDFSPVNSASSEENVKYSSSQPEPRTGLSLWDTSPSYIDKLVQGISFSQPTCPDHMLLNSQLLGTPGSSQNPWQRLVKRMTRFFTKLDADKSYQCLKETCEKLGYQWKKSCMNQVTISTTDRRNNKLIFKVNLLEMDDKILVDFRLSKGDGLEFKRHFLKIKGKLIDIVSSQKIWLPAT

[6] = target: Casein kinase I isoform alpha (Homo sapiens) (UniProt P48729); experiment: Residual activity of CK1alpha1 at 0.1 uM by microplate scintillation counting
[7] = target: Serine/threonine-protein kinase PAK 2 (Homo sapiens) (UniProt Q13177); experiment: Residual activity of PAK2 at 0.1 uM by microplate scintillation counting
[8] = target: Protein kinase C gamma type (Homo sapiens) (UniProt P05129); experiment: Residual activity of PKCgamma at 0.1 uM by microplate scintillation counting
[9] = target: T2, Serine/threonine-protein kinase TBK1 (Homo sapiens) (UniProt Q9UHD2); experiment: Residual activity of TBK1 at 0.1 uM by microplate scintillation counting
T2 sequence (whole entry): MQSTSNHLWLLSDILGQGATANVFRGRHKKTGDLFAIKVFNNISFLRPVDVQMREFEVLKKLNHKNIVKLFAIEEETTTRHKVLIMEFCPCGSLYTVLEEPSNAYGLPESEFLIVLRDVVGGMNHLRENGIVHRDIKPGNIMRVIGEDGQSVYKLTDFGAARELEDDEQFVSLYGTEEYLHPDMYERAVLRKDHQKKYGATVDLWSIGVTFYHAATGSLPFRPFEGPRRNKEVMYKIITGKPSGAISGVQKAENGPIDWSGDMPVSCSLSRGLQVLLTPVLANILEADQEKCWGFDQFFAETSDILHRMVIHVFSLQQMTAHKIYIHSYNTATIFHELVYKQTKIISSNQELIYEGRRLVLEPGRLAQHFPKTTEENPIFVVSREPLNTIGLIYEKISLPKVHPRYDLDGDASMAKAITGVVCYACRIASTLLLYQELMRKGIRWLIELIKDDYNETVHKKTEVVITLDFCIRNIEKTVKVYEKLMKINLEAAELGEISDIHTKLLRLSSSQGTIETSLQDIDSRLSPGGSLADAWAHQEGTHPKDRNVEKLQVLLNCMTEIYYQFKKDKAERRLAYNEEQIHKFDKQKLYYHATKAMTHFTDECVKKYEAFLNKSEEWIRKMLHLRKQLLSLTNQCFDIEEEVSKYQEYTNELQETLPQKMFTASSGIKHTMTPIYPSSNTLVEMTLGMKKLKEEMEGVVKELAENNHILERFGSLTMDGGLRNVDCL

[10] = target: T3, Tyrosine-protein kinase receptor TYRO3 (Homo sapiens) (UniProt Q06418); experiment: Residual activity of TYRO3 at 0.1 uM by microplate scintillation counting
T3 sequence (whole entry): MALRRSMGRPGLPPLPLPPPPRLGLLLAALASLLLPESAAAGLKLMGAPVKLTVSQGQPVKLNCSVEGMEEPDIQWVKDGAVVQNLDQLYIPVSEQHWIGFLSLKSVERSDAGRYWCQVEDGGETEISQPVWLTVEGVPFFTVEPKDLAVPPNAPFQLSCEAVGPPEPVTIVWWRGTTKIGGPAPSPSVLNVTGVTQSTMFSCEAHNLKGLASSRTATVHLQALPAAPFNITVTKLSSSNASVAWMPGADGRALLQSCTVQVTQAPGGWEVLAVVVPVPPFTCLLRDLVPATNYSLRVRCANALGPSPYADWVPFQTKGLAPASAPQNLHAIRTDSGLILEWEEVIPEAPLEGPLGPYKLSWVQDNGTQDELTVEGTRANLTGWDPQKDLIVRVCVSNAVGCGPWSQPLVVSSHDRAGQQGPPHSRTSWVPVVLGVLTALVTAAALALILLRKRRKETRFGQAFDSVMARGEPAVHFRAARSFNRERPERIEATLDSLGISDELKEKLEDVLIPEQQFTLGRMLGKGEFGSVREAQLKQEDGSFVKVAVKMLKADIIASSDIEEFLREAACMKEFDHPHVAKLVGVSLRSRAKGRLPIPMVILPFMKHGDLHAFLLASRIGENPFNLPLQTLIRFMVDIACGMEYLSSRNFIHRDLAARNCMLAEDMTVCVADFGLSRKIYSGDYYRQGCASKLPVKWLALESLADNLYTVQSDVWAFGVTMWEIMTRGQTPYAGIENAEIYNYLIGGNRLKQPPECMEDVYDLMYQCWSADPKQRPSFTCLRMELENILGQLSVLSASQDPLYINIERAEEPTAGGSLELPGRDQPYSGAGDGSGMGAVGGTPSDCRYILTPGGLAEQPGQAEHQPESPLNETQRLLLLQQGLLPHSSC

Calcium/calmodulin-dependent protein kinase type II subunit beta (Homo sapiens), sequence (Q13554 whole entry): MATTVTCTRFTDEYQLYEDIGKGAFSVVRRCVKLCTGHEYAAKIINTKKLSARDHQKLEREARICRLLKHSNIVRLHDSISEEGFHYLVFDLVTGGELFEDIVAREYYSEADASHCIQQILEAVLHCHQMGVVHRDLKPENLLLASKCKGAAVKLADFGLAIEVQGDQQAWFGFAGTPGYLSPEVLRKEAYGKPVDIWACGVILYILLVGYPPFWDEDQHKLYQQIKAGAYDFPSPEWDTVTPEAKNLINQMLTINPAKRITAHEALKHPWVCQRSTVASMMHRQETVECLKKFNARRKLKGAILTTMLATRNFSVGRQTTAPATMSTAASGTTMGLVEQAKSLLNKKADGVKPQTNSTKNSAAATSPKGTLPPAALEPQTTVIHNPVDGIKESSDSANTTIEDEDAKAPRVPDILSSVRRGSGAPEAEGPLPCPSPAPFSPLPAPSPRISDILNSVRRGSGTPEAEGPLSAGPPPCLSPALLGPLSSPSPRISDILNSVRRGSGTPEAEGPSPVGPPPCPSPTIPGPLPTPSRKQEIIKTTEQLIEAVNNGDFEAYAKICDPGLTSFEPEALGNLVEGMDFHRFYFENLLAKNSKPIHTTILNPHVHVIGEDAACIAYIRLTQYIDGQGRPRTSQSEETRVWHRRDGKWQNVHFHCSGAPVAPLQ
Serine/threonine-protein kinase PAK 2 (Homo sapiens), sequence (Q13177 whole entry): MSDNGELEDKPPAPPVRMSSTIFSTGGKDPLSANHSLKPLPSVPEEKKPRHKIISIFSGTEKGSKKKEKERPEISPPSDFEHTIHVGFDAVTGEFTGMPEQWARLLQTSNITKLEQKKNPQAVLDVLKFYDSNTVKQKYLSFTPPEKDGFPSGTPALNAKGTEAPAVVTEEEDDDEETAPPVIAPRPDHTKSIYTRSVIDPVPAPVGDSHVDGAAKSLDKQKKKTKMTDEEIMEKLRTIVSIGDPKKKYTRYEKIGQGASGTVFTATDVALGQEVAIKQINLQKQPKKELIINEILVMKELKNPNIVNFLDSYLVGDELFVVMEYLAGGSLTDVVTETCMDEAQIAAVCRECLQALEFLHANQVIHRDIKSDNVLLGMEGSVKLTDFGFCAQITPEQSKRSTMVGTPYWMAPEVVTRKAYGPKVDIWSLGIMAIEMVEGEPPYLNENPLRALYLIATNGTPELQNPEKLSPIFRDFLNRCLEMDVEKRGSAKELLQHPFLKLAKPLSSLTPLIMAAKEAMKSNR
Casein kinase I isoform alpha (Homo sapiens), sequence (P48729 2-337 limits assumed): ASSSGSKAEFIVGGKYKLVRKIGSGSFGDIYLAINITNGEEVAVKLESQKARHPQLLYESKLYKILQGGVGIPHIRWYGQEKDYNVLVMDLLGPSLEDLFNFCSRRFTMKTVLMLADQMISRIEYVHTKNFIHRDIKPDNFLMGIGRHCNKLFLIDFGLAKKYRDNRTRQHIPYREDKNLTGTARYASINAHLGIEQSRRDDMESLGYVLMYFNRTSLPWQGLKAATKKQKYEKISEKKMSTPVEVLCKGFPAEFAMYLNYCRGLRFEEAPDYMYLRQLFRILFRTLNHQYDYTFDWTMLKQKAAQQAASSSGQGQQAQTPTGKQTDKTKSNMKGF
Tyrosine-protein kinase JAK2 (Homo sapiens), sequence (O60674 whole entry): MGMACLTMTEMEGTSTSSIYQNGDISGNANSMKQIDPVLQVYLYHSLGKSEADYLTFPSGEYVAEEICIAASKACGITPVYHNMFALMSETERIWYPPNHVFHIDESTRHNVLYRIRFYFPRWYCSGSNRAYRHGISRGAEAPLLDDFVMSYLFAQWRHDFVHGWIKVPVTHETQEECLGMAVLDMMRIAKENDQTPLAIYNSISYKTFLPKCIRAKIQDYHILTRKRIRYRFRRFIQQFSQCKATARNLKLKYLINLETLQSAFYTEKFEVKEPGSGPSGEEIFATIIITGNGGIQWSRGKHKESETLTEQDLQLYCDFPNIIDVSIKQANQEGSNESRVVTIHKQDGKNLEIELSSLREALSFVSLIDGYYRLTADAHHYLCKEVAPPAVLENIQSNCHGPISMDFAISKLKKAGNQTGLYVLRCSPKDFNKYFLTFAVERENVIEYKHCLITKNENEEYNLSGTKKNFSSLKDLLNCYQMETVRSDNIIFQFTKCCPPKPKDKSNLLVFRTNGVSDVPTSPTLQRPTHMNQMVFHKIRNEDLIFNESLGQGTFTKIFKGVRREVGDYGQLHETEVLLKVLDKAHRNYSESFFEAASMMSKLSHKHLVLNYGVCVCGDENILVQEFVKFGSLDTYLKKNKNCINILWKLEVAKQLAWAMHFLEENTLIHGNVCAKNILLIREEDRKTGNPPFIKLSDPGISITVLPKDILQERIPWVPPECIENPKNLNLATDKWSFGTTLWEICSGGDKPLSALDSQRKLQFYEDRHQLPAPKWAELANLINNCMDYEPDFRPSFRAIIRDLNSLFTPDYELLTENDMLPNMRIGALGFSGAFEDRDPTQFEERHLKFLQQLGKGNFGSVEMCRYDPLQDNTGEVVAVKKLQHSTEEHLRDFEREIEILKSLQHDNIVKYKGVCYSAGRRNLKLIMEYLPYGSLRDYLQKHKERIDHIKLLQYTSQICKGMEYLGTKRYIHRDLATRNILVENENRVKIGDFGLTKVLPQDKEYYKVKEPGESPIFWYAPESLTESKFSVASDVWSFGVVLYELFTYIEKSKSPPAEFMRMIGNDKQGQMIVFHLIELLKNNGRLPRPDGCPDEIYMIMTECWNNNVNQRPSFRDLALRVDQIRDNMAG
Calcium/calmodulin-dependent protein kinase type II subunit alpha (Homo sapiens), sequence (Q9UQM7 whole entry): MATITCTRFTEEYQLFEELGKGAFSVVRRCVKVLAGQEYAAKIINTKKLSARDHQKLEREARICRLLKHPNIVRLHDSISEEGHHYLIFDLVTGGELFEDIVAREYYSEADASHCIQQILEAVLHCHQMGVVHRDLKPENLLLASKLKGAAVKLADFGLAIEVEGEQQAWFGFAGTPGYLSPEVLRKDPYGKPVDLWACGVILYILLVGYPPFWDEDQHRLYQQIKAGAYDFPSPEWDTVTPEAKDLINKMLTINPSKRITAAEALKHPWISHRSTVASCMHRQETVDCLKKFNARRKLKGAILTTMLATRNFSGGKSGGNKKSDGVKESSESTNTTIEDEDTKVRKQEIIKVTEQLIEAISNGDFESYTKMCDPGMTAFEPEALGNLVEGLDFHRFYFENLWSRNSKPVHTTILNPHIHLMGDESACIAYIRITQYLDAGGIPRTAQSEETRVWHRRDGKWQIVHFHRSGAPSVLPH
Casein kinase II subunit alpha' (Homo sapiens), sequence (P19784 whole entry, looked up): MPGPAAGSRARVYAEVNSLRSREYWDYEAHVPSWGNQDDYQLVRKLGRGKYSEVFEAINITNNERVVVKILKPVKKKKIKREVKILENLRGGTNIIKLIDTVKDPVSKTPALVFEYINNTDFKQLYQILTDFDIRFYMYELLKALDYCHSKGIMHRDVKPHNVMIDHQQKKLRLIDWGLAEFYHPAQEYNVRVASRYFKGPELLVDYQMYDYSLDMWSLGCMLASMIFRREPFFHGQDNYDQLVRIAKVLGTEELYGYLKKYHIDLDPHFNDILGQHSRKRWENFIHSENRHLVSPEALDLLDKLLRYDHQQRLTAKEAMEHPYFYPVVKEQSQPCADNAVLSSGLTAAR

Row | residual activity [1] [%] | residual activity [2] [%] | residual activity [3] [%] | residual activity [4] [%] | residual activity [5] [%] | residual activity [6] [%] | residual activity [7] [%] | residual activity [8] [%] | residual activity [9] [%] | residual activity [10] [%] | Compound
1 | 88 | 95 | 85 | 73 | 94 | 102 | 93 | 99 | 94 | 106 | COc1cc2c(Oc3ccc(-c4nc5ccccc5s4)cc3)ncnc2cc1OCCCN1CCCC1
2 | 96 | 96 | 80 | 100 | 99 | 101 | 111 | 120 | 79 | 120 | COc1cc2c(Oc3ccc(-c4nc5ccccc5s4)cc3)ncnc2cc1OCCCN1CCN(C)CC1
3 | 89 | 97 | 91 | 65 | 106 | 93 | 97 | 101 | 94 | 115 | COc1cc2c(Oc3ccc(-c4nc5ccccc5s4)cc3F)ncnc2cc1OCCCN1CCN(C)CC1
